Test results published in patent US10188633B2, “Identification of small molecules that facilitate therapeutic exon skipping” (The Regents of the University of California, priority 2011, dated 2019).

Assays:
mdx mice [1] = experiment: Intramuscular PMOE23 with systemic dantrolene in mdx mice, dystrophin in tibialis anterior; type: in vivo, mouse
Description: One dose of either 10 ug or 2 ug of morpholino M23D in 25 ul PBS was injected into the tibialis anterior (TA) of 6 week old mdx mice on day 1 (n=3 per group). Dantrolene was administered by intraperitoneal injection at either 10 or 20 mg/kg/day for 9 days in a volume of 200 ul every 12 hours. Dantrolene was solubilized in 20% DMSO in normal saline. TA muscle was harvested on Day 11 and immediately frozen in Optimal Cutting Temperature compound (O.C.T.) embedding medium. Serial sections along the TA with intervals 800 microns apart were processed to perform assessments within the TA region with maximal AO delivery. […] (A) For Western blot analysis, half of each of the 4 middle intervals were pooled. Dystrophin protein was detected using MANDYS8 (exons 31 and 32) antibody. Control C57 was loaded at 5 ug/well, and 50 ug/well was loaded for other mdx samples. (B) Western blot was quantified by densitometry and plotted as arbitrary densitometry units normalized to vinculin loading control. […] (D) Data from whole muscle cross sections from C were quantified as total fluorescence, without inclusion of edges with artifactual staining, normalized to surface area scanned. […] Images were analyzed using Ariol SL-50 (Applied Imaging Corp., San Jose, Calif.). […]
Total fluorescence was quantitated from TA sections by scanning four entire cross sections from each of the mice for each experimental group.

exon skipping = experiment: Counter screens, 16 point titrations and mdx mouse myotubes (validation of lead hits); type: cell-based
From the text: The cell line, which was adapted to allow the screening of thousands of compounds in multiple replicates, was obtained from Dr. Qi Lu. […]

Dmd exon 23 = Dmd exon 23 skipping in primary mouse myotubes with 2'-O-methyl AO M23D (RT-PCR, taqman); type: cell-based
Description: (§1) (A) Differentiated primary mouse myotubes were transfected either with 100 nM 2′-O-methyl M23D, which targets exon 23 splice donor region or mock transfected for 24 hours after which the transfection reagent was removed, and myotubes were treated with different concentrations of Dantrolene for 48 hours. Nested RT-PCR was performed on cDNA between exons 20-26, as previously described. The 901 bp band is the full-length mRNA product, the 688 bp mRNA product is a single skip of exon 23, and the 550 bp mRNA product is a double skip of exons 22 and 23. (B) Mouse Dmd exon 23-skipped transcript levels were quantified using a taqman assay with primer-probe sets spanning the splice junction created by an exon 23 skip (22-24 join) relative to primers amplifying the splice junction of exons 22 and 23 (representing the full length mRNA), as previously described. […] Error bars represent standard deviation of qRT-PCR triplicates. (C) Patient derived fibroblasts with exon 45-50 deletion (confirmed by microarray, see FIG. 6) were immortalized with lentiviral hTERT and transduced with inducible lentiviral MyoD [26]. Cells were grown to confluence, induced for MyoD activity, and fused for 10 days in low serum differentiation media. On Day 7, h51AON [5′ […] 3′] (SEQ ID NO:2) (same sequence as Pro051) within human exon 51 was added at concentrations indicated. Twenty-four hours later Dantrolene or vehicle was added. Cells were harvested 2 days later and total RNA isolated. RT-PCR amplified a fragment of cDNA from exons 42-53 which was followed by a nested PCR to generate a fragment spanning exons 43-52. The 540 bp product is the full length DMD mRNA species and the 307 bp product indicates the exon 51 skip isoform. Quantitation was performed using the Agilent Bioanalyzer and represented as the skip/full-length mRNA ratio.

DMD patients = details: oral, after 2 years of daily treatment; cited from earlier work
[2] = test system: human DMD exon 50 GFP based reporter; experiment: Secondary screening, 12 or 16 point titrations on the DMD exon 50 reporter cell line with or without AON6; type: cell-based, mouse
Description: 12 or 16 point titrations of compounds were added to the Ex50-GFP and C2C12 myoblasts either with or without AON6.
A stable clone was generated from C2C12 cells transfected with a human exon 50 DMD GFP reporter (ex50GFP) that has been previously described. Ex50GFP reporter myoblasts were seeded into uncoated 384 well plates and were incubated for 4 hours either with or without 300 nM of 2′-O-methyl phosphorothioate AON6 [5′[…] 3′ (SEQ ID NO:1)] targeting the human exon 50 splice donor site. Cells were transfected with AON6 using the FUGENE (Roche) transfection reagent per manufacturer's instructions. Following AON6 incubation, each component of the BioMol library (n=503) was screened at 10 uM concentration with a final concentration of the DMSO carrier being 1%. Forty-eight hours later fluorescence was measured using the MicroXpress high content imager and analyzed using MetaXpress. Immediately preceding imaging, DNA was stained with Hoescht for 30 min. The BioMol screen without AO (−AO) was performed in 6 replicates, and the with AO (+AO) screen was performed in 3 replicates. For the screen analysis raw fluorescence values were normalized to carrier controls present on each plate by subtracting the values. Negative fluorescence values were set to 0. The data from each compound were averaged from all replicates. For secondary screening by 12 or 16 point dose response, Ex50GFP myoblasts or C2C12 cells without the reporter were seeded on uncoated 384 well plates. A sub-optimal dose of AON6 targeting DMD exon 50 was added for 4 hours. Following the 4 hour incubation, a compound dilution was added (beginning at 100 uM with 1:1 dilutions) for either 12 or 16 points. After a 48 hour incubation with compounds, DNA was stained with Hoescht, and fluorescence determined using the high content imager and analyzed with MetaXpress.

mdx mice [3] = details: mouse, in vivo; cited from earlier work
DMD exon 51 = DMD exon 51 skipping in reprogrammed DMD patient fibroblasts fused to myotubes (GM05017, iDRM05017) with exon 51 AO; type: cell-based, human
Description: as §1
Patient fibroblasts with a DMD exon 45-50 deletion were immortalized and transduced with a lenti-viral vector expressing inducible MyoD to create iDRMs (inducibly directly reprogrammable myotubes, specifically iDRM05017s). iDRM05017s were induced for MyoD activity and then cultured for 10 days in fusion media. On Day 7, AO was added for twenty-four hours then removed and Piperacetazine, Trifluoperazine Dihydrochloride, Fluphenazine Dihydrochloride or vehicle (Dimethyl sulfoxide; DMSO) were added in fresh media. After two days total RNA was harvested, cDNA reverse transcribed with a DMD specific primer in exon 54, and exon 51 skipping was detected by nested RT-PCR spanning exons 43-52. Quantitation of exon 51 skipping was performed using the Agilent Bioanalyzer and is represented as the proportion of exon 51 skipping. Error bars represent the standard deviation (SD) of 3 independent wells.
Patient fibroblasts were transduced with HTERT and an inducible MyoD vector [26]. […] Exon 51 skipping activity was assessed in the context of transfecting an exon 51 2′-O-methyl AO with equivalent sequence to Pro051 seven days after fusion. This AO is directed at an exonic splicing enhancer (ESE) sequence within exon 51. The AO was removed prior to addition of dantrolene and cultures were harvested two days later. A nested RT-PCR was performed between DMD exons 43-52 and levels of exon 51 skipping were determined by quantitating capillary electrophoresis separated fragments representing skipped and unskipped DMD mRNA.

[4] = long term administration; cited from earlier work

Compound: O=C1CN(/N=C/c2ccc(-c3ccc([N+](=O)[O-])cc3)o2)C(=O)N1 [DANTROLENE]
- induced levels of dystrophin (Western blot) (mdx mice [1]; dantrolene 10 or 20 mg/kg/day IP with 2 ug PMOE23 IM): about 20 % of C57 dystrophin levels
- dystrophin protein rescue with and without PMOE23 (mdx mice [1]; dantrolene IP, immunofluorescence and Western blot): only rescued protein expression in the presence of PMOE23
- efficacy in counter screen and on mdx mouse myotubes (exon skipping): showing efficacy in counter screen and on mdx mouse myotubes
- amount of exon 23 skipped product (RT-PCR exons 20-26) (Dmd exon 23; 25 and 50 uM dantrolene after 100 nM M23D): increased the amount of exon 23 skipped product
- exon 23 skipping in the absence of AO (Dmd exon 23; no AO): failed to cause exon 23 skipping
- increase of Dmd exon 23 skipping (skip/full length mRNA, taqman) versus AO alone (Dmd exon 23; with suboptimal 100 nM AO M23D, mouse myotubes): 3 fold
- creatine kinase levels (DMD patients): slightly reduced
- manual muscle test (DMD patients): modest improvement
- side effects (DMD patients): without substantial harmful side effects
- increase in fluorescence in the Ex50-GFP+AO compared to the reporter line without AO ([2]; 12 or 16 point titrations from 100 uM, positivity criterion (FIG. 5 legend: >10%)): 10%
- dose response in Ex50-GFP reporter ([2]; 12 or 16 point titrations with AON6): evidence of a dose response
- CK values (mdx mice [3]): lower CK values
- AO directed DMD exon 51 skipping (DMD exon 51; compound added 24 h after AO for two days, nested RT-PCR exons 43-52): enhance AO directed DMD exon 51 skipping
- enhancement of exon 51 skipping versus vehicle control (DMD exon 51; with suboptimal dose of exon 51 AO, skip/full-length mRNA ratio, Bioanalyzer): up to 8 fold
- dose shown to be safe in humans [4]: up to 8 mg/kg/day
